Measurements: patent publication US11603377B2, “MTORC1 modulators and uses thereof” (Aeovian Pharmaceuticals, Inc., priority 2020, dated 2023)
pIC50, pKd: −log10 of the molar value.

Assays:
[1] = molecular target: mTORC1 (Homo sapiens (Human), UniProt P42345+P62942); assay: mTORC1 inhibition, AlphaLISA of Phospho-p70 S6 kinase (p70S6K pT389) in PC-3 cells; type: cell-based; details: inhibition of p70S6K pT389 levels
[2] = molecular target: mTORC2 (Homo sapiens (Human), UniProt P42345+P62942); assay: mTORC2 inhibition, AlphaLISA of Phospho-AKT (pAKT pS473) in PC3 cells; type: cell-based
Method: Example 32: mTORC1 Inhibition, mTORC2 Inhibition, Cell Lysis, AlphaLISA Experiments, and Data Analysis
mTORC2 inhibition was determined via analysis of phosphorylation level of Phospho-AKT (pAKT pS473) with the corresponding AlphaLISA kit (PerkinElmer, Alpha SF Ultra™ Multiplex p-AKT1/2/3(Ser473)/Total AKT1). PC3 cells were plated on 96 well plates in assay medium (DMEM: Ham's F12, basic (CLS Cell Lines Service GmbH, Cat #820400a), supplemented with additional 10% FBS at 1.20E+06 cells/mL and incubated over-night at 37° C., 5% CO2. On the following day, cells were treated with assay medium (10% FBS) containing increasing compound concentrations (12 points at 3-fold dilutions) and incubated for 6 hours at 37° C., 5% CO2. Thereafter, medium was aspirated and cells were rinsed with PBS. In the following, cells were treated with compound dilutions in starvation medium (DMEM: Ham's F12, basic; without FBS) for further 18 h at 37° C., 5% CO2. Then, immediately prior to cell lysis, cells were treated with 12% FBS for 15 min.
After performing experiments according to mTORC1 and mTORC2 protocols, cells were harvested in lysis buffer supplied with the AlphaLISA kits, additionally enriched with Roche cOmplete™ Protease Inhibitor Cocktail (Cat #CO-RO). Thus, cells were lysed using 50 μL of the lysis buffer and incubated for 60 min at 4° C. while shaking. After centrifugation at 4000 rpm for 5 min, experiments were performed according to the AlphaLISA manufacturer's protocol.
Ten microliters of cell lysates were mixed with the acceptor mix. After incubation for 2 h at room temperature, the donor mix was added. After additional incubation at room temperature for 2 hours, AlphaLISA signal was read on PHERAstar® FSX (BMG Labtech) with AlphaPLEX module.
EC50 values were calculated by ExcelFit standard algorithm.

[3] = molecular target: FKBP12 (Homo sapiens (Human), UniProt P62942); assay: SPR assay to determine binding affinity to FKBP12 (direct binding); details: immobilized biotinylated avi-FKBP12
FKBP12, sequence (P62942 whole entry): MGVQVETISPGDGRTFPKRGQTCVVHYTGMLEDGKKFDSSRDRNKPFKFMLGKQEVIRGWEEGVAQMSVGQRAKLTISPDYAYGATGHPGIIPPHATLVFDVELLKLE
Method: SPR Assay to Determine Binding Affinity to FKBP12.
Biotinylated avi-FKBP12 was immobilized on a streptavidin chip (Cytiva Series S SA) using a Biacore 8K or 8 k+ (Cytiva). To achieve an immobilization level of 1000 RU, 2 μg/ml biotinylated avi-FKBP12 were injected for 100 sec at a flow rate of 10 μl/min. Rapalogs were diluted in DMSO to 100× working concentration. Each Rapalog was 100-fold diluted in 50 mM HEPES pH 7.5, 150 mM NaCl, 2 mM MgCl2, 1 mM DTT, 0.05% Tween-20 and a serial dilution prepared (9 concentrations, 3-fold dilutions, 0.08-500 nM). […] The compound dilutions were then injected at 100 uL/min for 120 seconds contact time in sequence with increasing concentrations. Dissociation was monitored for 3600 seconds. 50 mM HEPES pH 7.5, 150 mM NaCl, 2 mM MgCl2, 1 mM DTT, 0.05% Tween-20, 1% DMSO was used as running buffer. The single-cycle kinetics data were fit to a 1:1 binding model to measure the association rate ka (1/Ms), the dissociation rate kd (1/s) and the affinity Kd (M).

[4] = molecular target: FKBP51 (Homo sapiens (Human), UniProt Q13451); assay: SPR assay to determine binding affinity to FKBP51 (direct binding); details: immobilized biotinylated avi-FKBP51
FKBP51, sequence (Q13451 whole entry): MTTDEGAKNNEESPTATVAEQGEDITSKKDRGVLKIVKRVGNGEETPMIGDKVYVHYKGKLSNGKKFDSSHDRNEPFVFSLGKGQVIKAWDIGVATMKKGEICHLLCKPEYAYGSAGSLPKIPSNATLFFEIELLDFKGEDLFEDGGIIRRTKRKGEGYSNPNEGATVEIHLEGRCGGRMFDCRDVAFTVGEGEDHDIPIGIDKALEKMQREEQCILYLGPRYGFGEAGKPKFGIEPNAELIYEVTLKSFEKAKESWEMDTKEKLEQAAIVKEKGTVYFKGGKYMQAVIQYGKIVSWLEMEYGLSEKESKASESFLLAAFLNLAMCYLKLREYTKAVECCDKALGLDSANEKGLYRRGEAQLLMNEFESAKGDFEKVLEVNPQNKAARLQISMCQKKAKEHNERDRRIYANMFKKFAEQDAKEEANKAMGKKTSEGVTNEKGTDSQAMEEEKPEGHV
Method: Example 29: SPR Assay to Determine Binding Affinity to FKBP51
Biotinylated avi-FKBP51 was immobilized on a streptavidin chip (Cytiva Series S SA) using a Biacore 8K or 8 k+ (Cytiva). To achieve an immobilization level of 2000 RU, 3 μg/ml biotinylated avi-FKBP51 were injected for 360 sec at a flow rate of 10 μl/min. Rapalogs were diluted in DMSO to 100× working concentration. Each Rapalog was 100-fold diluted in 50 mM HEPES pH 7.5, 150 mM NaCl, 2 mM MgCl2, 1 mM DTT, 0.05% Tween-20 and a serial dilution prepared (8 concentrations, 3-fold dilutions, 0.5-1000 nM). […] The compound dilutions were then injected at 100 uL/min for 120 seconds contact time and with 3600 seconds dissociation time with increasing concentrations. 50 mM HEPES pH 7.5, 150 mM NaCl, 2 mM MgCl2, 1 mM DTT, 0.05% Tween-20, 1% DMSO was used as running buffer. Multi-cycle kinetics data were fit to a 1:1 binding model to measure the association rate ka (1/Ms), the dissociation rate kd (1/s) and the affinity Kd (M).

[5] = molecular target: FKBP12 / FRB ternary complex (Homo sapiens (Human), UniProt P42345+P62942); assay: SPR assay to characterize ternary complex formation with FKBP12 (FRB binding to rapalog-saturated FKBP12); details: FRB dilutions with 100 nM rapalog on immobilized FKBP12
Method: Example 30: SPR Assay to Characterize Ternary Complex Formation with FKBP12
(§1) Biotinylated avi-FKBP12 was immobilized on a streptavidin chip (Cytiva Series S SA) using a Biacore 8K or 8 k+ (Cytiva). To achieve an immobilization level of 100 RU, 0.3 μg/ml biotinylated avi-FKBP12 were injected for 80 sec at a flow rate of 10 μl/min. Serial dilution of FRB was prepared (12 concentrations, 3-fold dilutions, 0.00011-20 μM) and supplemented with 100 nM of rapalog. A-B-A injection mode was used to ensure saturation immobilized FKBP12 with respective rapalog. 100 nM solution of the respective rapalog was injected before FRB injection for 120 sec and during dissociation for 420 sec. The FRB dilutions were then injected 120 seconds contact time with increasing concentrations. […] 50 mM HEPES pH 7.5, 150 mM NaCl, 2 mM MgCl2, 1 mM DTT, 0.05% Tween-20, 1% DMSO was used as running buffer at a flow rate of 30 μl/min. The multi-cycle kinetics data were fit to a 1:1 binding model to measure the association rate ka (1/Ms), the dissociation rate kd (1/s) and the affinity Kd (M). In case of fast association and dissociation, steady state affinity analysis following the law of mass action was used to determine the affinity Kd (M).

[6] = molecular target: FKBP51 / FRB ternary complex (Homo sapiens (Human), UniProt P42345+Q13451); assay: SPR assay to characterize ternary complex formation with FKBP51 (FRB binding to rapalog-saturated FKBP51); details: FRB dilutions with 100 nM rapalog on immobilized FKBP51
Method: Example 31: SPR Assay to Characterize Ternary Complex Formation with FKBP51
as §1, with “Biotinylated avi-FKBP51” for “Biotinylated avi-FKBP12”, “of 200” for “of 100”, “RU, 0.6” for “RU, 0.3”, “biotinylated avi-FKBP51” for “biotinylated avi-FKBP12”, “for 150” for “for 80”

Structure (SMILES)	pIC50 [1]	mTORC2 % inhibition at 1 uM [2]	pKd [3]	pKd [4]	pKd [5]	pKd [6]
CO[C@@H]1C[C@H](C[C@@H](C)[C@@H]2CC(=O)[C@H](C)/C=C(\C)[C@H](O)[C@@H](OC)C(=O)[C@H](C)C[C@H](C)/C=C/C=C/C=C(\C)[C@@H](OCCC3COC3)C[C@@H]3CC[C@@H](C)[C@@](O)(O3)C(=O)C(=O)N3CCCC[C@H]3C(=O)O2)CC[C@H]1O [Compound 55]	9.10 to 10.00	B (B>20% and less than 40% inhibition at 1 uM)	> 9.52	< 7.00	6.10 to 6.52	< 6.10
CCOC(=O)COC1CCC(CC(C)C2CC(=O)C(C)C=C(C)C(O)C(OC)C(=O)C(C)CC(C)C=CC=CC=C(C)C(OCCOC)CC3CCC(C)C(O)(O3)C(=O)C(=O)N3CCCCC3C(=O)O2)CC1OC (stereo not drawn) [Compound 56]	9.10 to 10.00	C (C≥40% and less than 60% inhibition at 1 uM)	> 9.52	< 7.00	6.10 to 6.52	< 6.10
CO[C@@H]1C[C@H](C[C@@H](C)[C@@H]2CC(=O)[C@H](C)/C=C(\C)[C@@H](O)[C@@H](OC)C(=O)[C@H](C)C[C@H](C)/C=C/C=C/C=C(\C)[C@@H](OC3CCS(=O)(=O)C3)C[C@@H]3CC[C@@H](C)[C@@](O)(O3)C(=O)C(=O)N3CCCC[C@H]3C(=O)O2)CC[C@H]1O (stereo partly drawn) [Compound 26]	< 9.10	A (A ≤20% inhibition at 1 micro Molar (uM))	> 9.52	< 7.00	< 6.10	< 6.10
COC1CC(CC(C)C2CC(=O)C(C)C=C(C)C(O)C(OC)C(=O)C(C)CC(C)C=CC=CC=C(C)C(OC3CCOCC3)CC3CCC(C)C(O)(O3)C(=O)C(=O)N3CCCCC3C(=O)O2)CCC1O (stereo not drawn) [Compound 33]	< 9.10	A (A ≤20% inhibition at 1 micro Molar (uM))	> 9.52	7.00 to 8.00	< 6.10	< 6.10
COC1C(=O)C(C)CC/C=C/C=C/C=C(\C)[C@H](NS(=O)(=O)CCO)C[C@H]2CC[C@H](C)[C@](O)(O2)C(=O)C(=O)N(C)C(C)C(=O)OC([C@H](C)C[C@@H]2CC[C@@H](OC3CC3)[C@H](OC)C2)CC(=O)C(C)/C=C(\C)C1O (stereo partly drawn) [Compound 10]	9.10 to 10.00	A (A ≤20% inhibition at 1 micro Molar (uM))	9.00 to 9.52	7.00 to 8.00	6.10 to 6.52	6.10 to 6.52
COC1CC(CC(C)C2CC(=O)C(C)C=C(C)C(O)C(OC)C(=O)C(C)CC(C)C=CC=CC=C(C)C(OCC3CC3)CC3CCC(C)C(O)(O3)C(=O)C(=O)N3CCCCC3C(=O)O2)CCC1O (stereo not drawn) [Compound 39]	9.10 to 10.00	B (B>20% and less than 40% inhibition at 1 uM)	9.00 to 9.52	< 7.00	6.10 to 6.52	< 6.10
CO[C@@H]1C[C@H](C[C@@H](C)[C@@H]2CC(=O)[C@H](C)/C=C(\C)[C@@H](O)[C@@H](OC)C(=O)[C@H](C)C[C@H](C)/C=C/C=C/C=C(\C)[C@@H](OCC3CCOC3)C[C@@H]3CC[C@@H](C)[C@@](O)(O3)C(=O)C(=O)N3CCCC[C@H]3C(=O)O2)CC[C@H]1O (stereo partly drawn) [Compound 31]	9.10 to 10.00	A (A ≤20% inhibition at 1 micro Molar (uM))	> 9.52	7.00 to 8.00	< 6.10	< 6.10
COC1CC(CC(C)C2CC(=O)C(C)C=C(C)C(O)C(OC)C(=O)C(C)CC(C)C=CC=CC=C(C)C(OCC3CC3)CC3CCC(C)C(O)(O3)C(=O)C(=O)N3CCCCC3C(=O)O2)CCC1OCCCO (stereo not drawn) [Compound 43]	< 9.10	C (C≥40% and less than 60% inhibition at 1 uM)	< 9.00	< 7.00	> 6.52	> 6.52
CO[C@@H]1C[C@H](C[C@@H](C)[C@@H]2CC(=O)[C@H](C)/C=C(\C)[C@@H](O)[C@@H](OC)C(=O)[C@H](C)C[C@H](C)/C=C/C=C/C=C(\C)[C@H](OCCCO)C[C@@H]3CC[C@@H](C)[C@@](O)(O3)C(=O)C(=O)N3CCCC[C@H]3C(=O)O2)CC[C@H]1OCCCS(C)(=O)=O [Compound 69]	9.10 to 10.00	B (B>20% and less than 40% inhibition at 1 uM)	9.00 to 9.52	7.00 to 8.00	6.10 to 6.52	< 6.10
CO[C@@H]1C[C@H](C[C@@H](C)[C@@H]2CC(=O)[C@H](C)/C=C(\C)[C@@H](O)[C@@H](OC)C(=O)[C@H](C)C[C@H](C)/C=C/C=C/C=C(\C)[C@@H](OCCCO)C[C@@H]3CC[C@@H](C)[C@@](O)(O3)C(=O)C(=O)N3CCCC[C@H]3C(=O)O2)CC[C@H]1OCCCS(C)(=O)=O [Compound 68]	> 10.00	C (C≥40% and less than 60% inhibition at 1 uM)	> 9.52	7.00 to 8.00	> 6.52	< 6.10
